The values below come from the METLIN SMRT retention time set (Domingo-Almenara et al. 2019).

A short description of the series: gradient 5% acetonitrile 3 min, to 50% in 2 min, to 85% in 15 min, held 3 min, 100 µL/min. To be noted: column: Zorbax Extend-C18 2.1 x 50 mm; eluents: water / acetonitrile, 0.1% formic acid. The procedure, abridged:
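Pure standards were analyzed in mixtures of ~100 molecules using HPLC coupled to a quadrupole time-of-flight mass spectrometer, in both positive and negative ionization mode. Separation used a Zorbax Extend-C18 column (2.1 × 50 mm, 1.8 μm) at 100 μL/min, with water and acetonitrile each containing 0.1% formic acid. Dead and dwell volumes were 40 μL and 900 μL, and data were collected over 3 months. Retention time was read from computationally picked adduct peaks, each inspected manually.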
The compound `Cc1ccc(S(=O)(=O)N2CCC(C3CCNC3)CC2)cc1F` (centres undefined) gave an RP-LC retention time of 651 s. With `O=C(NCc1cc(-c2ccc3c(c2)OCCO3)on1)c1ccc2nsnc2c1`, the RP-LC retention time worked out at 788 s. As to `CCc1ccc(-c2noc(Cn3c(=O)n(-c4ccccc4)c(=O)c4sccc43)n2)cc1`, the RP-LC retention time stood at 1090 s. In the case of `Cc1noc(-c2ccnc(-n3cnc(C(=O)NCC(C)C)c3)c2)n1` it was 773 s. On to `O=C(NCc1ccc(F)cc1F)c1c(O)c2cccnc2n(-c2cccc(F)c2)c1=O`, for which the RP-LC retention time worked out at 1190 s. Regarding `COCCn1cc2c3c(cccc31)CN(C(=O)Nc1cccc(Cl)c1)CC2`, the RP-LC retention time stood at 981 s. The compound `Cn1cccc1C(=O)N1C[C@@H]2C[C@H]1C[C@@H]2NC(=O)c1cccs1` registered an RP-LC retention time of 700 s. Compound `Cc1ccc(-n2cc(C(=O)Oc3cccnc3)c3ccccc3c2=O)cc1` showed an RP-LC retention time of 978 s. In the case of `COc1ccc(C(=O)Nc2nc(-c3ccc4c(c3)NC(=O)C(C)O4)cs2)cc1OC` (centres undefined) it was 864 s. On to `CCS(=O)(=O)Nc1cccc(-c2nc3cccnc3s2)c1`, for which the RP-LC retention time is 720 s. In turn, `CCn1ccc(C(=O)N2CCC(c3noc(-c4ccncc4)n3)C2)n1` (centres undefined) came in with an RP-LC retention time of 665 s.

`Cc1nc(-n2cccc2)sc1C(=O)OCc1cc(-c2ccc3c(c2)OCCO3)on1`: the RP-LC retention time was 1210 s. `CCOc1ccc(NC(=O)c2oc3ccc(Cl)cc3c2C)c2cccnc12` returned an RP-LC retention time of 789 s. The value for `CN(C)c1ccc(CNC(=O)c2cc(=O)n3c(nc4ccccc43)s2)cc1` was 805 s; that for `COc1cc(C(=O)NC2CCN(c3cc(-c4cccs4)[nH]n3)C2)cc(OC)c1OC` (centres undefined) was 698 s. In the case of `Cc1nc(-c2cn(C)c3ncccc23)sc1C(=O)Nc1ccccc1Cl` it was 1090 s; in that of `Cc1cc(C)cc(NC(=O)C2CCCN(c3ncnc4c3nc3n4CCCCC3)C2)c1` (centres undefined), 907 s.

Take `CCCCNC(=O)Cc1nnc(-c2cccc(F)c2)o1`: the RP-LC retention time came out at 731 s. The value for `O=C1Nc2ccccc2C12OCC1(CO2)COC2(OC1)C(=O)Nc1ccccc12` (centres undefined) was 784 s. The value for `O=C(N1CCC(Cc2noc(-c3ccc(F)cc3)n2)C1)C1(c2ccccc2)CC1` (centres undefined) was 1010 s.

The compound `CC(=O)Nc1ccc(-c2cc(C(=O)N3CCN(c4ccccn4)CC3)c3ccccc3n2)cc1` displayed an RP-LC retention time of 609 s. In the case of `COc1ccc(C2c3c(oc4cc(C)c(C)cc4c3=O)C(=O)N2CCCN2CCOCC2)cc1OC` (centres undefined) it was 766 s; in that of `CN(CCCNC(=O)c1sc2ncccc2c1-n1cccc1)Cc1ccccc1`, 662 s; in that of `COc1cc(Cl)c(NS(=O)(=O)c2c(C)sc(C)c2-c2n[nH]c(C)c2C)c(OC)c1`, 980 s.

`O=S(=O)(Cc1ccccc1Cl)N(CCc1ccccc1)Cc1ccccn1` yielded an RP-LC retention time of 950 s. In the case of `COc1cc(OC)cc(C(=O)N2CCC3(CC2)N=C(c2ccc(Cl)cc2)NO3)c1` it was 893 s. The value for `CCCCCn1c(=O)c2ccccc2n(Cc2nc(-c3ccc(SC)cc3)no2)c1=O` was 1290 s; that for `Cn1c(=O)c2cc(C(=O)Nc3ccc(F)cc3)cnc2n(-c2ccc(F)cc2)c1=O` was 960 s; that for `O=C(Nc1ccccc1)N1CC(n2ccnc2)C1` was 569 s. Regarding `O=S(=O)(Nc1cccn2c(C3CCC3)nnc12)c1ccc2c(c1)OCCO2`, the RP-LC retention time turned out to be 751 s.

As to `O=C(Nc1ccccc1C(F)(F)F)N(CCc1cccs1)C1CC1`, the RP-LC retention time was found to be 1100 s. The value for `C=CCN(CC=C)S(=O)(=O)c1ccc2nc(NC(=O)Cc3cccs3)sc2c1` was 936 s; that for `Cc1ccc2nc(C(=O)NCc3cc(F)ccc3F)cn2c1` was 655 s; that for `Cc1cnc(C(=O)N2[C@H]3CC[C@@H]2c2cnc(-c4ccc(F)cc4)nc2C3)cn1` was 874 s.

On to `COc1ccc(-c2cn3ccn(-c4ccc(Cl)cc4)c(=O)c3n2)cc1`, for which the RP-LC retention time came to 828 s.

In the case of `CC1CN=C2C=C(N3CCN(C(=O)CCc4ccccc4)CC3)N=CN21` (centres undefined), the RP-LC retention time was 620 s. As to `CCCCn1c(=O)c2ccccc2n(Cc2nc(-c3ccc(SC)cc3)no2)c1=O`, the RP-LC retention time was 1250 s. The value for `O=c1c2scc(-c3cccc(F)c3)c2ncn1Cc1ccc(Br)cc1` was 1170 s; that for `CC(C)c1ccc(OCC(=O)Nc2nc(-c3ccccc3)cs2)cc1` was 1240 s; that for `Cc1ccc(Sc2nccnc2N2CCCC(C(=O)NCc3ccc(C)o3)C2)cc1` (centres undefined) was 1080 s.

`COc1ccc2[nH]c(C)c(CCNS(=O)(=O)c3cc(OC)c(C)cc3OC)c2c1` registered an RP-LC retention time of 870 s. For the compound `Cc1noc(C)c1CC(=O)N1CCN(c2ncnc3c2CCC3)CC1`, the RP-LC retention time was 559 s.

Regarding `CSc1ccc(NC(=O)C2CCN(C(=O)c3ncn4c3COC(c3ccc(F)cc3)C4)CC2)cc1` (centres undefined), the RP-LC retention time worked out at 864 s.

`O=C(CC1Sc2ccc(C(F)(F)F)cc2NC1=O)Nc1cccc(Cl)c1Cl` (centres undefined) gave an RP-LC retention time of 993 s. Compound `COc1cccc(CCc2nc(-c3ccc4oc(C)nc4c3)no2)c1` returned an RP-LC retention time of 1030 s. `CCOC(=O)C1=C(CN2CCN(Cc3ccc4c(c3)OCO4)CC2)NC(=O)NC1c1ccc(C)cc1` (centres undefined): the RP-LC retention time amounted to 585 s. In turn, `Cc1ccc(-c2ccc(N3CCCC(C(=O)Nc4ccc5c(c4)OCO5)C3)nn2)cc1` (centres undefined) yielded an RP-LC retention time of 753 s. In the case of `O=C(CCc1c(-c2ccc(Cl)cc2)nc2ccccn12)N1CCOCC1` it was 587 s.

In the case of `COCC(=O)NC1CCC12CCN(C(=O)CC1CCCC1)CC2` (centres undefined), the RP-LC retention time came to 722 s. The value for `Cc1ccc(-c2c(C#N)c(N)nc(SCC(=O)NCc3ccccc3)c2C#N)cc1` was 844 s; that for `Cc1ccc(-n2nc(C)c3sc(N4CCCC(C(=O)Nc5cccc(Cl)c5C)C4)nc32)cc1` (centres undefined) was 1310 s; that for `CC1CCN(S(=O)(=O)c2ccccc2-c2nc(-c3ccccc3)no2)CC1` was 1200 s. On to `COCC(C)NC(=O)C(=O)Nc1ccc2c(c1)OCCO2` (centres undefined), for which the RP-LC retention time worked out at 685 s. The value for `COc1cccc(CCC(=O)N2CCc3cc(-c4csc(C)n4)ccc32)c1` was 1040 s. The value for `COc1ccc(NC(=O)CCc2c(C)nn(-c3cc(N(C)C)ncn3)c2C)cc1OC` was 697 s; that for `CN(C)C[C@@H]1CN(C)C[C@H]1NC(=O)NCc1ccc(OC(F)(F)F)cc1` was 588 s; that for `CCN1CCCn2cc(S(=O)(=O)NCc3ccccc3)cc2C1=O` was 711 s. `COc1ccccc1CNC(=O)C1CCCN(c2nnc(C)c3c(C)n(-c4ccccc4)nc23)C1` (centres undefined) came in with an RP-LC retention time of 725 s.

`CCOc1ccc(S(=O)(=O)N2CCC(C(=O)N3CCCCCC3)CC2)cc1C` gave an RP-LC retention time of 951 s. The value for `O=C(CN1C(=O)CCCc2ccccc21)NCc1ccc(F)c(Cl)c1` was 859 s. The value for `CC(C)(C)c1noc(-c2ccc(=O)n(Cc3cccc(F)c3)n2)n1` was 1050 s; that for `Cc1ccc(CNC(=O)C2CCCN(C(=O)C3Sc4ccccc4NC3=O)C2)cc1` (centres undefined) was 782 s. As for `Cc1csc(-c2cc(S(=O)(=O)NC3CCCC3)cn2CC(=O)N2CCCC2)n1`, the RP-LC retention time came out at 848 s. Compound `CCN(Cc1ccccc1)S(=O)(=O)c1ccc2c(c1)CCCC(=O)N2` gave an RP-LC retention time of 856 s. `COCCNC(=O)C(=O)NCC1CCN(C(=O)c2ccccc2F)CC1` came in with an RP-LC retention time of 609 s.

Turning to `CCCNC(=O)CCc1c(-c2ccc(Cl)cc2)nc2ccccn12`, the RP-LC retention time turned out to be 625 s. The compound `CC(C)NC(=O)c1ccc(OCC2CCCN(C(=O)c3c(F)cccc3F)C2)cc1` (centres undefined) yielded an RP-LC retention time of 841 s. The compound `O=C(NC1CC1)c1cn(-c2ncccc2-c2nc(-c3ccccc3)no2)cn1` gave an RP-LC retention time of 762 s. In the case of `O=C(c1sc(N2CCCCC2)nc1-c1ccccc1)c1c[nH]c2ccccc12` it was 1080 s.

For the compound `CC1=NS(=O)(=O)N(C)C=C1C(=O)OCc1c(C)noc1C`, the RP-LC retention time stood at 776 s. The value for `CCC(C)n1c(=O)c2ccccc2n(Cc2nc(-c3ccc(Cl)cc3)no2)c1=O` (centres undefined) was 1280 s; that for `CCCCn1cc(S(=O)(=O)Nc2cccc(F)c2)c2cccnc21` was 936 s; that for `CCc1ccc(-c2csc(Nc3cc(C)ccn3)n2)cc1` was 1040 s. The compound `CCC(C)NC(=O)C1CCN(C(=O)Nc2ccc(NC(=O)Nc3ccccc3)cc2)CC1` (centres undefined) came in with an RP-LC retention time of 748 s. The value for `COc1ccc2c(c1)C1(CCN(C(=O)c3ccc(F)c(F)c3)C1)C(=O)N2C` (centres undefined) was 634 s; that for `COc1ccc(C2(C(=O)N3CCCC3c3nc(-c4ccccc4Cl)no3)CC2)cc1` (centres undefined) was 1070 s. In the case of `Cc1cc(N2CCOCC2)n2nc(CN3CCN(c4cccc(Cl)c4)CC3)nc2n1` it was 656 s. `O=C(C1=NNc2cc(Cl)ccc2S1(=O)=O)N1CCOCC1` gave an RP-LC retention time of 664 s. The value for `Cc1cccc(S(=O)(=O)N2CCC3(C2)C(=O)N(C)c2ccccc23)c1` (centres undefined) was 910 s.
